# Source: patent publication US8207167B2, “Aryl-phenyl-sulfonamide-phenylene compounds and their use” (PIMCO 2664 Limited, priority 2008, dated 2012)
# How the values were obtained:
# [1] = Thermodynamic aqueous solubility in fasted state simulated intestinal fluid (FaSSIF); type: physicochemical; settings: 25° C., 24 hours equilibration, HPLC; for solubility at 24 h: pH 6.5, thermodynamic from solid
# Procedure: (§1) Initial screening of candidate compounds was performed using in vitro assays to determine potency, metabolic stability and solubility in biologically relevant fluids. Potency was assessed using a viability assay based on the survival of the J774 macrophage cell line. Macrophages are closely related to osteoclasts and have been used previously as a model system for osteoclast survival (see, e.g., Luckman et al., 1998). Like osteoclasts, J774 macrophages are dependent on continued NFκB activation for survival, thereby providing a valuable screen for compounds with anti-inflammatory activity. Metabolic stability was measured by determining the rate of disappearance of compound in the presence of human liver microsomal preparations, as quantified by LC-MS/MS. Solubility was measured by equilibration of the compound in fasted state simulated intestinal fluid (FaSSIF) and quantified by HPLC.
# Thermodynamic aqueous solubility was measured by equilibration of a number of APSAP compounds, in the solid state, with fasted state simulated intestinal fluid (FaSSIF) and quantified by HPLC. Measurement of solubility in FaSSIF provides a valuable model for the prediction of drug dissolution following oral administration.
# Preparation of blank FaSSIF: NaOH pellets (174 mg), NaH2PO4.2H2O (2.235 g), and NaCl (3.093 g) were dissolved in 500 mL of water. The pH was adjusted to 6.5 using 1 M NaOH solution.
# Preparation of FaSSIF: Sodium taurocholate (165 mg) was dissolved in 25 mL blank FaSSIF. 0.6 mL of a solution containing 100 mg/mL lecithin in methylene chloride was added. The methylene chloride was eliminated under vacuum at about 40° C. The vacuum was drawn for 15 minutes at 250 mbar, followed by 15 minutes at 100 mbar. […] After cooling to room temperature, the solution was then adjusted to 100 mL with blank FaSSIF.
# The suspension was equilibrated at 25° C. for 24 hours, and then the pH was measured. The suspension was then filtered through a glass fibre C filter into a 96-well plate. The filtrate was then diluted by a factor of 100. Quantification was made by HPLC with reference to a standard solution of compound at approximately 0.1 mg/mL in DMSO. Different volumes of the standard, diluted and undiluted sample solutions were injected. The solubility was calculated using the peak areas determined by integration of the peak found at the same retention time as the principal peak in the standard injection. Analysis was performed on an Agilent HP1100 series system equipped with a diode array detector and using ChemStation software vB.02.01-SR1.
# [2] = test system: J774 macrophages; assay: Alamar Blue macrophage J774 viability assay; type: cell-based; settings: 72 hours culture with compound, Alamar Blue read-out
# Procedure: as §1
# In vitro potency as anti-inflammatory agents was determined for a number of APSAP compounds by incubation with J774 macrophages and subsequent determination of cell viability.
# J774 cells were plated at 10^4 cells per well in 100 μL αMEM (α Modified Eagle Medium) in 96-well plates and grown overnight. The next day, test compounds were added to the cultures, and cultures were continued for another 72 hours. At the end of the culture period, cell survival was determined using an Alamar Blue assay as previously described (see, e.g., Nociari et al., 1998).
# Alamar Blue is an oxidation-reduction sensitive indicator. The dye itself is in the oxidised state, which is blue and non-fluorescent. The dye can accept electrons from reducing species, such as NADPH and FADH, to form a reduced dye species, which is red and fluorescent. Thus the transformation from oxidised form to reduced form can be measured by fluorimetric or colourimetric means. For fluorescence measurements, 530-560 nm excitation and 590 nm emission wavelengths are typically used. For colourimetric measurements, absorbance at 570 nm (reduced form) and 600 nm (oxidised form) is typically measured. A simple calculation is performed to determine the relative quantities of the two species.
# A high ratio of the reducing species, NADPH and FADH, to the corresponding oxidised species, NADP and FAD, is an indicator that cells are proliferating and viable. A low ratio indicates cells that are quiescent or non-viable.
# Briefly, Alamar Blue (Biosource International) was added undiluted to each well (1:10 v/v, 10 μL). The plate was incubated at 37° C. for 3-4 hours and the fluorescence was measured at 590 nm, with a 25 nm bandwidth. A high reading indicated cells with normal viability, and a low reading indicated cells that have been damaged and are no longer proliferating normally. The controls gave a high fluorescence reading, indicating a high number of live, healthy cells. A potent test compound gave a low fluorescence reading.
# The average results for each test compound (n=5) were expressed as a percent (%) of the average control value.
# Addition of Compounds. All of the compounds studied were made up as 100 mM solutions in DMSO. These stock solutions were then diluted 1000-10000× in culture medium (αMEM). From these 100 μM or 10 μM solutions, convenient quantities (3-33 μL) were added directly to the wells so as to give the desired final compound concentration.
# [3] = Human liver microsomal stability assay; type: in vitro ADME; settings: pooled human liver microsomes 0.5 mg/mL, test compound 3 μM, 45 minute incubation, NADPH; for half-life at 3 μM: both sexes, pH 7.4
# Procedure: as §1
# Metabolic stability of APSAP derivatives was measured by determination of the rate of compound disappearance when incubated in the presence of human liver microsomes. Liver microsomes are prepared from the endoplasmic reticulum of hepatocytes and are the primary source of the most important enzymes (cytochrome P450) involved in drug metabolism. Study of drug stability in the presence of liver microsomes is accepted as a valuable model permitting rapid prediction of in vivo drug stability.
# Human liver microsomes were obtained from a commercial source. Test compounds (3 μM) were incubated with pooled liver microsomes (male and female). Samples were incubated for a 45 minute period and removed at 5 time points and test compounds were analysed by LC-MS/MS.
# The final incubation volume was 25 μL. A control incubation was included for each compound tested, where 0.1 M phosphate buffer pH 7.4 was added instead of NADPH. The control compounds testosterone and 7-hydroxycoumarin were included in each experiment and all incubations were performed singularly for each compound.
# Each compound was incubated for 0, 5, 15, 30, and 45 minutes. The control (minus NADPH) was incubated for 45 minutes only. The reactions were stopped by the addition of 50 μL methanol containing internal standard at the appropriate time points. The incubation plates were centrifuged at 2500 rpm for 20 minutes at 4° C. to precipitate the protein.
# Following protein precipitation, the sample supernatants were combined in cassettes of up to 4 compounds and analysed using standard LC-MS/MS conditions.
# From a plot of the natural logarithm of the peak area ratio (i.e., the ratio of compound peak area:internal standard peak area) against time, the gradient of the line was determined. Subsequently, half-life and intrinsic clearance were calculated using the equations below: Eliminated rate constant(k)=(−gradient). […] Intrinsic Clearance(CLint)([…])=(V×0.693)/t1/2. wherein V=Incubation volume(μL/mg microsomal protein). Pharmacokinetics Studies
# [4] = fasted state simulated intestinal fluid (FaSSIF)
Structure (SMILES),IC50 ([2]; Mus musculus),half-life at 3 μM [3],"solubility at 24 h [1, 4]",also measured
"O=S(=O)(Nc1cccc(CO)c1)c1ccc(-c2ccc(F)cc2F)cc1 [ABD456, 2′,4′-difluoro-biphenyl-4-sulfonic acid (3-hydroxymethyl-phenyl)-amide, reference compound]",250 nM,,,solubility at 24 h [1]: 50 µg/mL
"O=S(=O)(Nc1ccc(CO)cc1)c1ccc(-c2ccc(F)cc2F)cc1 [ABD466, 2′,4′-difluoro-biphenyl-4-sulfonic acid (4-hydroxymethyl-phenyl)-amide, reference compound]",3000 nM,2 min,,solubility at 24 h [1]: 40 µg/mL
"Cc1c(CO)cccc1NS(=O)(=O)c1ccc(-c2ccc(F)cc2F)cc1 [ABD527, reference compound]",,,,Solubility [1]: 40 µg/mL
"O=S(=O)(Nc1ccc(CO)c(CO)c1)c1ccc(-c2ccc(F)cc2F)cc1 [ABD565, reference compound]",,,,Solubility [1]: 30 µg/mL
"O=S(=O)(Nc1cccc(CO)c1)c1ccc(-c2ccc(Cl)cc2F)cc1 [ABD575, reference compound]",,,,Solubility [1]: 70 µg/mL; IC50 [2]: 400 nM
"O=S(=O)(Nc1cc(CO)ccc1O)c1ccc(-c2ccc(F)cc2F)cc1 [ABD585, reference compound]",,,,Solubility [1]: 70 µg/mL
"O=C(O)c1cccc(NS(=O)(=O)c2ccc(-c3ccc(Cl)cc3Cl)cc2)c1 [ABD612, 3-(2′,4′-Dichlorobiphenyl-4-ylsulfonamido)benzoic acid, reference compound]",,,130 µg/mL,T1/2 [3]: Stable
"O=S(=O)(Nc1cccc(CCO)c1)c1ccc(-c2ccc(Cl)cc2Cl)cc1 [ABD625, reference compound]",,,,T1/2 [3]: 13 min
"O=S(=O)(Nc1cccc(CCO)c1)c1ccc(-c2ccc(F)cc2F)cc1 [ABD628, 2′,4′-difluoro-biphenyl-4-sulfonic acid [3-(2-hydroxy-ethyl)-phenyl]-amide, reference compound]",,18 min,,
"O=S(=O)(Nc1cccc(CCO)c1)c1ccc(-c2ccc(Br)cc2)cc1 [ABD630, reference compound]",,,,T1/2 [3]: 43 min; Solubility [1]: 60 µg/mL
"CC(C)(O)c1cccc(NS(=O)(=O)c2ccc(-c3ccc(Cl)cc3Cl)cc2)c1 [ABD707, 2′,4′-Dichloro-N-(3-(2-hydroxypropan-2-yl)phenyl)biphenyl-4-sulfonamide]",90 nM,12 min,140 µg/mL,
"CC(O)c1cccc(NS(=O)(=O)c2ccc(-c3ccc(Cl)cc3Cl)cc2)c1 (stereo not shown) [ABD708, 2′,4′-Dichloro-N-(3-(1-hydroxyethyl)phenyl)biphenyl-4-sulfonamide]",180 nM,6 min,100 µg/mL,
"O=S(=O)(Nc1cccc(C2(O)CC2)c1)c1ccc(-c2ccc(Cl)cc2Cl)cc1 [ABD709, 2′,4′-Dichloro-N-(3-(1-hydroxycyclopropyl)phenyl)biphenyl-4-sulfonamide]",380 nM,18 min,70 µg/mL,
"CN(C)Cc1cccc(NS(=O)(=O)c2ccc(-c3ccc(Cl)cc3Cl)cc2)c1 [ABD724, 2′,4′-Dichloro-N-(3-((dimethylamino)methyl)phenyl)biphenyl-4-sulfonamide]",300 nM,21 min,90 µg/mL,
"CN(C)C(=O)c1cccc(NS(=O)(=O)c2ccc(-c3ccc(Cl)cc3Cl)cc2)c1 [ABD730, 3-(2′,4′-Dichlorobiphenyl-4-ylsulfonamido)-N,N-dimethylbenzamide]",,15 min,20 µg/mL,
"CC(=O)c1cccc(NS(=O)(=O)c2ccc(-c3ccc(Cl)cc3Cl)cc2)c1 [ABD746, N-(3-Acetylphenyl)-2′,4′-dichlorobiphenyl-4-sulfonamide, reference compound]",,11 min,8 µg/mL,
"NS(=O)(=O)c1cccc(NS(=O)(=O)c2ccc(-c3ccc(Cl)cc3Cl)cc2)c1 [ABD751, 2′,4′-Dichloro-N-(3-sulfamoylphenyl)biphenyl-4-sulfonamide]",870 nM,46 min,40 µg/mL,
"O=S(=O)(Nc1cccc(C(O)C(F)(F)F)c1)c1ccc(-c2ccc(Cl)cc2Cl)cc1 (stereo not shown) [ABD766, 2′,4′-Dichloro-N-(3-(2,2,2-trifluoro-1-hydroxyethyl)phenyl)biphenyl-4-sulfonamide]",710 nM,16 min,20 µg/mL,
"CN(C)CC(O)c1cccc(NS(=O)(=O)c2ccc(-c3ccc(F)cc3F)cc2)c1 (stereo not shown) [ABD784, N-(3-(2-(Dimethylamino)-1-hydroxyethyl)phenyl)-2′,4′-difluorobiphenyl-4-sulfonamide]",1430 nM,,,
"CN[C@@H](CO)c1cccc(NS(=O)(=O)c2ccc(-c3ccc(F)cc3F)cc2)c1 [ABD810, (R)-2′,4′-Difluoro-N-(3-(2-hydroxy-1-(methylamino)ethyl)phenyl)biphenyl-4-sulfonamide]",1020 nM,,,
"CN[C@H](CO)c1cccc(NS(=O)(=O)c2ccc(-c3ccc(F)cc3F)cc2)c1 [ABD811, (S)-2′,4′-Difluoro-N-(3-(2-hydroxy-1-(methylamino)ethyl)phenyl)biphenyl-4-sulfonamide]",350 nM,,,
"N[C@@H](CO)c1cccc(NS(=O)(=O)c2ccc(-c3ccc(F)cc3F)cc2)c1 [ABD854, (R)—N-(3-(1-Amino-2-hydroxyethyl)phenyl)-2′,4′-difluorobiphenyl-4-sulfonamide]",1350 nM,,,
"CC(N)(CO)c1cccc(NS(=O)(=O)c2ccc(-c3ccc(F)cc3F)cc2)c1 (stereo not shown) [ABD862, N-(3-(2-Amino-1-hydroxypropan-2-yl)phenyl)-2′,4′-difluorobiphenyl-4-sulfonamide]",2430 nM,,,
